Laboratory results reported in patent publication US20240238258A1, “INHIBITORS OF PROTEIN TYROSINE PHOSPHATASE, COMPOSITIONS, AND METHODS OF USE” (BRISTOL-MYERS SQUIBB COMPANY, priority 2022, published 2024).

Tests used:
human PTPN2 [1] = molecular target: T1, human PTPN2 (Homo sapiens, UniProt P17706); test: PTPN2 BCHEM (PhosphoSens assay, substrate AQT0264); format: biochemical; conditions: PhosphoSens substrate AQT0264 20 μM, PTPN2 150 pM, room temperature
T1 sequence (P17706 1-415): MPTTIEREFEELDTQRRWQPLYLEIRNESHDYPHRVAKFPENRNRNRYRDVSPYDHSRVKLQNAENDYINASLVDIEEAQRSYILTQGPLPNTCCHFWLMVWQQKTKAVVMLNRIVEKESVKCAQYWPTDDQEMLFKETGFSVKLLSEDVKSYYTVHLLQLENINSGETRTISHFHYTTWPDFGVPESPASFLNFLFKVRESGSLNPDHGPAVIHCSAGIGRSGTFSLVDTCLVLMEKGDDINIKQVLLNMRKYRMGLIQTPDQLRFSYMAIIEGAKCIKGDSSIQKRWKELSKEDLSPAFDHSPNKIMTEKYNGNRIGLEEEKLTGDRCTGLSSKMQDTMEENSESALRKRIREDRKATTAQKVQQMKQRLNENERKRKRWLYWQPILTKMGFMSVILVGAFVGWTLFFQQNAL
Procedure: A PhosphoSens® kinase assay was performed as described by the vendor (AssayQuant Technologies, Marlborough, MA). Briefly, 1000× solutions of compounds were prepared in DMSO via serial dilution of the 10 mM DMSO stocks using 3-fold intervals in a 384-well reagent plate. 50 nL of the compound dilution series was then added to the corresponding wells of a 384-well assay plate. 40 mL of 1.25× substrate (AQT0264) in 1× assay buffer (50 mM HEPES pH 7.5, 500 μM EGTA, […] MgCl2, 0.01% Brij-35, 1% Glycerol, 1 mM DTT, and 0.2 mg/mL BSA) was transferred to each well of the assay plate to achieve a final substrate concentration of 20 μM. Finally, […] of 5× PTPN2 enzyme stock was added to each well of the assay plate for a final enzyme concentration of 150 pM. Reaction progress curves were collected by sampling fluorescence intensity at the excitation wavelength 360 nm (λex360) and emission wavelength 480 nm (λem480) every 71 seconds for one hour using a Synergy H4 plate reader (BioTek Instruments/Agilent Technologies, Winooski, VT) at room temperature.
(§1) For IC50 data, High DDT concentration and/or DiFMUP substrate assays were used; a skilled artisan may use either assay.

[2] = test system: phosphorylated STAT1 in B16-F10 cells; test: Phospho-STAT1 (Tyr701) HTRF assay in B16-F10 cells with IFN-gamma; format: cell-based; conditions: mouse IFN-gamma 100 ng/mL, 1 hour, read-out: pSTAT1 HTRF B16 EC50
Procedure: B16-F10 cells (ATCC, Manassas, VA, #CRL-6475) were cultured in DMEM growth medium (ThermoFisher Scientific, Waltham, MA, #11995-040) supplemented with 10% heat inactivated FBS (ThermoFisher Scientific, #16140-071) and 1% pen/strep (ThermoFisher Scientific, #15140-122). The cells were seeded into a white opaque 384-well tissue culture treated microplate (PerkinElmer, Waltham, MA, #6007688) at a density of 10,000 cells/well in 20 uL total volume and incubated overnight at 37 C and 5% CO2. 30 nL of compounds dissolved in DMSO were then transferred from a source plate into target wells with the Echo650 acoustic liquid handler (Beckman Coulter, Indianapolis, IN). Negative control wells received 30 nL of DMSO only (0.15% final concentration). Plates were returned to the incubator for 1 hour and then cells treated with either 5 uL of growth medium or 5 uL of growth medium containing 500 ng/ml of recombinant mouse IFN-gamma protein (R&D Systems, Minneapolis, MN, #485-MI/CF, 100 ng/mL final concentration) using the Assist automated pipetting platform (INTEGRA Biosciences, Hudson, NH). Plates were incubated at 37 C for 1 hour and assayed for phosphorylated STAT1 protein levels with the phospho-STAT1 (Tyr701) HTRF kit (Cisbio, Bedford, MA, #63ADK026PEH) according to manufacturer's instructions. HTRF signal intensity was collected with the EnVision 2105 plate reader (PerkinElmer) 24 hours later and analyzed with the Dotmatics software platform to calculate compound IC50 values.

B16-F10 cells = test: Cell proliferation assay in B16-F10 cells with IFN-gamma (CellTiter-Glo); format: cell-based; conditions: 120 h, mouse IFN-gamma 10 ng/mL, read-out: PTPN2 Prolif 5d B16F10 EC50
Procedure: B16-F10 cells (ATCC, Manassas, VA, #CRL-6475) were cultured in DMEM growth medium (ThermoFisher Scientific, Waltham, MA, #11995-040) supplemented with 10% heat inactivated FBS (ThermoFisher Scientific, #16140-071) and 1% pen/strep (ThermoFisher Scientific, #15140-122). The cells were seeded into two white opaque 384-well tissue culture treated microplates (PerkinElmer, Waltham, MA, #6007688) at a density of 100 cells/well in 20 uL total volume and incubated overnight at 37 C and 5% CO2. 30 nL of compounds dissolved in DMSO were then transferred from a source plate into target wells with the Echo650 acoustic liquid handler (Beckman Coulter, Indianapolis, IN). Negative control wells received 30 nL of DMSO only (0.15% final concentration). Plates were returned to the incubator for 1 hour and then cells treated with either 5 uL of growth medium or 5 uL of growth medium containing 50 ng/ml of recombinant mouse IFN-gamma protein (R&D Systems, Minneapolis, MN, #485-MI/CF, 10 ng/mL final concentration) using the Assist automated pipetting platform (INTEGRA Biosciences, Hudson, NH). Plates were incubated at 37C for 4 days and cell proliferation assayed with the CellTiter-Glo reagent (Promega, Madison, WI, #G7573, 25 uL per well). […] Off-target compound mediated cytotoxicity was identified by checking for growth inhibition in the absence of IFNg.

human PTPN2 [3] = molecular target: T1, human PTPN2; test: Phosphatase activity assay using DiFMUP as substrate (PTPN2 BCHEM DIFMUP); format: biochemical; parameters: purchased MilliporeSigma SRP5075; conditions: human PTPN2 0.15 nM, 10 mM DTT, room temperature
Procedure: The PTPN2 biochemical assay was performed as follows, a 5× stock solution of human PTPN2 (SRP5075, MilliporeSigma, Burlington, MA) and a 1.25× stock solution of DiFMUP (D6567, ThermoFisher Scientific, Waltham, MA), were prepared in 1× reaction buffer consisting of 50 mM HEPES, pH 7.4, 1 mM EDTA, 150 mM NaCl, 0.2 mg/mL BSA, 100 U/mL catalase and 10 mM DTT. […] of the DiFMUP substrate solution, for a final concentration of […] DiFMUP substrate, was added to a Corning 3574 384-well, white, non-binding surface microtiter plate containing […] of serially diluted test compounds prepared in DMSO. The reactions were started with the addition of […] of the enzyme solution, for a final PTPN2 concentration of 0.15 nM, and monitored every 105 seconds for 60 minutes at λEX 360/λEM 460 in a BioTek Synergy HTX plate reader (Agilent Technologies, Santa Clara, CA) at room temperature. The initial linear portions of the progress curves were fit according to a linear equation to yield the slopes and converted to % inhibition based on a value of 100% activity for the no inhibitor treated control. IC50 values of each compound were obtained by fitting the % inhibition-compound concentration curves using Dotmatics software (Dotmatics, Bishops Stortford, Hertfordshire, England).
as §1

## Cc1ccc(-c2csc(N(C)Cc3cc(O)c(N4CC(=O)NS4(=O)=O)c(F)c3)n2)c(C)c1 [EXAMPLE 1, 5-(4-(((4-(2,4-dimethylphenyl)thiazol-2-yl)(methyl)amino)methyl)-2-fluoro-6-hydroxyphenyl)-1,2,5-thiadiazolidin-3-one 1,1-dioxide]
Human PTPN2 [1]
  IC50: 940 nM
[2]
  EC50: > 15000 nM
B16-F10 cells
  EC50: > 15000 nM
Human PTPN2 [3]
  IC50: 720 nM

## O=C1CN(c2c(O)cc(CNc3cc[nH]n3)cc2F)S(=O)(=O)N1 [EXAMPLE 2, 5-(4-(((1H-pyrazol-3-yl)amino)methyl)-2-fluoro-6-hydroxyphenyl)-1,2,5-thiadiazolidin-3-one 1,1-dioxide]
[2]
  EC50: > 15000 nM
B16-F10 cells
  EC50: > 15000 nM
Human PTPN2 [3]
  IC50: 20 nM

## O=C1CN(c2c(O)cc(CNc3ccon3)cc2F)S(=O)(=O)N1 [EXAMPLE 3, 5-(2-fluoro-6-hydroxy-4-((isoxazol-3-ylamino)methyl)phenyl)-1,2,5-thiadiazolidin-3-one 1,1-dioxide]
[2]
  EC50: 30 nM
B16-F10 cells
  EC50: 1120 nM
Human PTPN2 [3]
  IC50: 20 nM

## Cc1cc(NCc2cc(O)c(N3CC(=O)NS3(=O)=O)c(F)c2)no1 [EXAMPLE 4, 5-(2-fluoro-6-hydroxy-4-(((5-methylisoxazol-3-yl)amino)methyl)phenyl)-1,2,5-thiadiazolidin-3-one 1,1-dioxide]
Human PTPN2 [1]
  IC50: 20 nM
[2]
  EC50: 350 nM
B16-F10 cells
  EC50: 1030 nM
Human PTPN2 [3]
  IC50: 30 nM

## O=C1CN(c2c(O)cc(CNc3nc[nH]n3)cc2F)S(=O)(=O)N1 [EXAMPLE 5, 5-(4-(((1H-1,2,4-triazol-3-yl)amino)methyl)-2-fluoro-6-hydroxyphenyl)-1,2,5-thiadiazolidin-3-one 1,1-dioxide]
[2]
  EC50: 930 nM
B16-F10 cells
  EC50: 1690 nM
Human PTPN2 [3]
  IC50: 40 nM

## Cn1ccc(NCc2cc(O)c(N3CC(=O)NS3(=O)=O)c(F)c2)n1 [EXAMPLE 6, 5-(2-fluoro-6-hydroxy-4-(((1-methyl-1H-pyrazol-3-yl)amino)methyl)phenyl)-1,2,5-thiadiazolidin-3-one 1,1-dioxide]
[2]
  EC50: 6850 nM
B16-F10 cells
  EC50: 820 nM
Human PTPN2 [3]
  IC50: 10 nM

## O=C1CN(c2c(O)cc(CNc3nncs3)cc2F)S(=O)(=O)N1 [EXAMPLE 7, 5-(4-(((1,3,4-thiadiazol-2-yl)amino)methyl)-2-fluoro-6-hydroxyphenyl)-1,2,5-thiadiazolidin-3-one 1,1-dioxide]
[2]
  EC50: 150 nM
B16-F10 cells
  EC50: 460 nM
Human PTPN2 [3]
  IC50: 10 nM

## Cc1cnc(NCc2cc(O)c(N3CC(=O)NS3(=O)=O)c(F)c2)[nH]1 [EXAMPLE 8, 5-(2-fluoro-6-hydroxy-4-(((5-methyl-1H-imidazol-2-yl)amino)methyl)phenyl)-1,2,5-thiadiazolidin-3-one 1,1-dioxide]
[2]
  EC50: 4650 nM
B16-F10 cells
  EC50: 5900 nM
Human PTPN2 [3]
  IC50: 160 nM

## O=C1CN(c2c(O)cc(CNc3nccs3)cc2F)S(=O)(=O)N1 [EXAMPLE 9, 5-(2-fluoro-6-hydroxy-4-((thiazol-2-ylamino)methyl)phenyl)-1,2,5-thiadiazolidin-3-one 1,1-dioxide]
[2]
  EC50: 1430 nM
B16-F10 cells
  EC50: 2300 nM
Human PTPN2 [3]
  IC50: 3 nM

## O=C1CN(c2c(O)cc(CNc3ncc[nH]3)cc2F)S(=O)(=O)N1 [EXAMPLE 10, 5-(4-(((1H-imidazol-2-yl)amino)methyl)-2-fluoro-6-hydroxyphenyl)-1,2,5-thiadiazolidin-3-one 1,1-dioxide]
[2]
  EC50: 90 nM
B16-F10 cells
  EC50: 180 nM
Human PTPN2 [3]
  IC50: 6 nM

## Cn1ccnc1NCc1cc(O)c(N2CC(=O)NS2(=O)=O)c(F)c1 [EXAMPLE 11, 5-(2-fluoro-6-hydroxy-4-(((1-methyl-1H-imidazol-2-yl)amino)methyl)phenyl)-1,2,5-thiadiazolidin-3-one 1,1-dioxide]
[2]
  EC50: 210 nM
B16-F10 cells
  EC50: 160 nM
Human PTPN2 [3]
  IC50: 10 nM

## Cc1nnc(NCc2cc(O)c(N3CC(=O)NS3(=O)=O)c(F)c2)s1 [EXAMPLE 12, 5-(2-fluoro-6-hydroxy-4-(((5-methyl-1,3,4-thiadiazol-2-yl)amino)methyl)phenyl)-1,2,5-thiadiazolidin-3-one 1,1-dioxide]
[2]
  EC50: 230 nM
B16-F10 cells
  EC50: 560 nM
Human PTPN2 [3]
  IC50: 10 nM

## Cc1csc(NCc2cc(O)c(N3CC(=O)NS3(=O)=O)c(F)c2)n1 [EXAMPLE 13, 5-(2-fluoro-6-hydroxy-4-(((4-methylthiazol-2-yl)amino)methyl)phenyl)-1,2,5-thiadiazolidin-3-one 1,1-dioxide]
[2]
  EC50: 230 nM
B16-F10 cells
  EC50: 1870 nM
Human PTPN2 [3]
  IC50: 10 nM

## Cc1cc(NCc2cc(O)c(N3CC(=O)NS3(=O)=O)c(F)c2)sn1 [EXAMPLE 14, 5-(2-fluoro-6-hydroxy-4-(((3-methylisothiazol-5-yl)amino)methyl)phenyl)-1,2,5-thiadiazolidin-3-one 1,1-dioxide]
[2]
  EC50: 690 nM
B16-F10 cells
  EC50: 2570 nM
Human PTPN2 [3]
  IC50: 20 nM

## Cc1cc(NCc2cc(O)c(N3CC(=O)NS3(=O)=O)c(F)c2)[nH]n1 [EXAMPLE 15, 5-(2-fluoro-6-hydroxy-4-(((3-methyl-1H-pyrazol-5-yl)amino)methyl)phenyl)-1,2,5-thiadiazolidin-3-one 1,1-dioxide]
[2]
  EC50: 630 nM
B16-F10 cells
  EC50: 380 nM
Human PTPN2 [3]
  IC50: 4 nM
